The values that follow come from patent EP2610242A1, “Positively charged water-soluble prodrugs of aspirin” (Techfields Biochem Co. Ltd, priority 2006, dated 2008).

Data set [1] can be described thus: Solubility in water of the prepared product.
For data set [2] the following is noted: hairless, mouse, in vivo.
Data set [3] can be described thus: physchem.
The test system of data set [4] is rats. Description: Acute toxicity, oral LD50. In kind it is in vivo. Conditions: unit printed as g. From the text:
(§1) The acute toxicity of the pro-drugs were investigated.

Data set [5] in a line: In vivo penetration through the skin of intact hairless mice, plasma levels of salicylic acid by HPLC.
Data set [6] deals with rats. As to the kind of experiment: Anti-inflammatory activity, carrageenin hind paw swelling. Conditions: 50mg/kg, oral administration and transdermal administration, Figure 4. The class given is in vivo. As for the experimental part:
Anti-inflammatory activity: 50 mg/kg of diethylaminoethyl acetylsalicylate.AcOH was administered orally or transdermally to rats and 50 mg/kg of aspirin was administered orally. 60 minutes later, a carrageenin solution was administered subcutaneously to the foot pads of the rats. The volume of the hind paw was measured at every hour after the administration of the carrageenin, and the rate of increase in the volume of the paw was calculated and designated as the rate of swelling(%).
(§2) • Figure 1: Cumulative amounts of acetylsalicylic acid (ASA), ethyl acetylsalicylate(E-ASA), and diethylaminoethyl acetylsalicylate.AcOH(DEAE-ASA) crossing isolated human skin tissue in Franz cells (n=5). […] In each case, the vehicle was pH 7.4 phosphate buffer (0.2 M). • Figure 2: Total plasma levels of salicylic acid (SA) after topical application of 300 mg of acetylsalicylic acid (ASA) or diethylaminoethyl acetylsalicylate.AcOH (DEAE-ASA) to the backs of hairless mice (n=5). • Figure 3. […] A is the control line. • Figure 4. […] A is the control line.
(The carrageenan paw model is a standard test of acute inflammation.)

Data set [7] concerns rats. Description: Antipyretic activity, E. coli suspension as pyrogen, body temperature. The note with it: for body temperature t=0 min / body temperature t=90 min / body temperature t=180 min. / body temperature t=270 min.: in °C (unit assumed). The class given is in vivo.
Procedure: Antipyretic activity: Rats received a sterilized E. coli suspension as a pyrogen. 56 rats were divided into 7 groups. The control group is group A. 2 hours later, Aspirin (ASA, B1 for 100mg/kg and B2 for 150mg/kg) and diethylaminoethyl acetylsalicylate.AcOH (DEAE-ASA, C1 for 100mg/kg and C2 for 150 mg) were administered orally and diethylaminoethyl acetylsalicylate.AcOH (DEAE-ASA, D1 for 100 mg and D2 for 150 mg/kg) were administered transdermally. The body temperature of rats was taken at 90 min. intervals before and after the administration of the test compounds.
In data set [8] the test system is mice. As to the kind of experiment: Analgetic activity, acetic acid writhing test. The note with it: for inhibition at 50 mg/kg / inhibition at 100 mg/kg: Mus musculus, po, read-out: % (rate of writhings inhibition). In kind it is in vivo. In general terms: Writhing tests count abdominal constrictions after an irritant is injected.
Procedure: The number of writhings that occurred when mice were administered an acetic acid solution intraperitoneally were counted, and the rate of inhibition based on the control group was calculated. 42 mice were divided into 7 groups (6 mice each). Aspirin (ASA, 50 mg/kg and 100 g) was administered to groups B1 and B2 of mice and diethylaminoethyl acetylsalicylate.AcOH (DEAE-ASA, 50 mg and 100 mg/kg) was administered orally to groups C1 and C2. Diethylaminoethyl acetylsalicylate.AcOH (DEAE-ASA, 50 mg and 100 mg/kg) was administered transdermally to groups D1 and D2. The A group is the control group. The test compounds were administered to the mice 30 minutes before the acetic acid solution was administered.
Data set [9] in a line: In vitro penetration through human skin, modified Franz cells, HPLC.
Data set [10] is described as follows: Conversion of pro-drug in whole human blood diluted 20 times with pH 7.4 phosphate buffer, HPLC. The note with it: whole human blood diluted 20 times with pH 7.4 phosphate buffer (0.2M).
From the text: (§3) To determine how much the pro-drugs of acetylsalicylic acid were changed back to the drug itself or diethylaminoethyl salicylate, we diluted whole human blood 20 times with a pH 7.4 phosphate buffer (0.2M).
Data set [11] is described as follows: Acute toxicity, oral LD50. The class given is in vivo. Conditions: rat, in vivo, rats, read-out: LD50 orally in rats.
From the text: as §1

The nature of data set [12]: Half-life in whole human blood.
From the text: as §3
Data set [13] deals with mice. As to the kind of experiment: Analgetic activity, prolongation of pain threshold of mouse tail (D'Amour-Smith Method). In kind it is in vivo. The note with it: versus 200mg/kg aspirin, Figure 3. The procedure:
Analgetic activity: The prolongation time of pain the threshold of a mouse tail was determined in accordance with the D'Amour-Smith Method (J. Pharmacol. Exp. Ther., 72, 74(1941)).
as §2

For data set [14], the system named is rats. Description: Gastroduodenal bleeding (fecal blood) after 21 days of oral dosing. Conditions: 100 mg/kg per day orally for 21 days.
A short description of data set [15]: Solubility in pH 7 phosphate buffer. The note with it: pH 7, aqueous buffer.
The test system of data set [16] is rats. Conditions: rat, in vivo, po, 100 mg/kg/day, 21 days.
The conditions of data set [17]: human, 20 % (suspension in the donor), pH 7.4.
For data set [18] the following is noted: cited from earlier work.
Data set [19] can be described thus: physchem. Conditions: pH 7, aqueous buffer.
[20] abbreviates: 50 mg/kg transdermally, group D1.
The mark [21] stands for this setting: 50 mg/kg, groups B1 (ASA) and C1 (DEAE-ASA orally), 30 minutes before acetic acid.
Setting [22] is: 100 mg/kg transdermally, group D2.
[23] abbreviates: 100 mg/kg, groups B2 (ASA) and C2 (DEAE-ASA orally), 30 minutes before acetic acid.
Where [24] appears, read: 50 mg/kg, groups B1 (ASA) and C1 (DEAE-ASA orally).
Where [25] appears, read: 100 mg/kg, groups B2 (ASA) and C2 (DEAE-ASA orally).

Converted amounts (≈) assume the structure as drawn. Where two headings read alike, the source gives them in different places.

For the molecule “S-diethylaminoethyl propionylthiosalicylate.AcOH”, in data set [1], the Solubility in water stood at 280 mg/mL.
For the molecule `O=C(O)c1ccccc1O` [salicylic acid], the “peak plasma level of salicylic acid” value in data set [2] was about 0.01 mg/mL.
A word on the solubility: it is the concentration that dissolves in the medium under given conditions. On to `CC(=O)Oc1ccccc1C(=O)NCCN(C)C` [N-dimethylaminoethyl acetylsalicylamide.AcOH], for which, in data set [1], the concentration in solution (solubility) was 350 mg/mL (≈ 1400 mM).
For the molecule `CCCN(CCC)CCOC(=O)c1ccccc1OC(C)=O` [dipropylaminoethyl acetylsalicylate.AcOH], the concentration in solution in data set [1] (solubility) came to 300 mg/mL (≈ 976 mM).
On to `CC(=O)Oc1ccccc1C(=O)OCCN(C)C` [dimethylaminoethyl acetylsalicylate.AcOH], for which the solubility in the data set “physchem [3]” is 350 mg/mL (≈ 1390 mM). In the data set with rats [4], the “LD50 orally in rats” value is 2.2 g.
In general, inhibition refers to the share of the control response that was lost under treatment. The term LD50 denotes the dose expected to kill half of the subjects tested. Usually half-life stands for the time needed for the level to fall by half in the phase considered. A higher half-life goes with slow decline. Regarding `CCN(CC)CCOC(=O)c1ccccc1OC(C)=O` [diethylaminoethyl acetylsalicylate.AcOH], the “difference of peak plasma levels” value in data set [5] (pro-drug donor versus acetylsalicylic acid donor) was “approximately 100 times”. In addition, in [5] (topical, 30% in 1 mL isopropanol on 1 cm^2 of the back, hairless mice), the “peak plasma level of salicylic acid” value was about 10 mg/mL. Further, in [5] (versus 0.15-0.3 mg/ml), the “peak plasma level times higher than the salicylate plasma level for effective analgesia” value is listed as 33-67 times. Further, the “peak plasma level times higher than the salicylate plasma level for effective anti-inflammatory activity” value in data set [5] (versus 0.2-0.3 mg/ml) is reported as 33-50 times. Also, the “Anti-inflammatory activity (rate of swelling) compared with aspirin” value in the data set with rats [6] was “better Anti-inflammatory activity than that of aspirin”. The “antipyretic activity compared with aspirin” value in the data set on rats [7] (100 mg/kg dose, summary of Table 2) is reported as “some better than aspirin”. Further, the “body temperature t=0 min” value came out at 37.25±0.09 in the data set with rats [7] (100mg/kg orally), 37.19±0.07 in the data set on rats [7] (100mg/kg transdermally), 37.18±0.07 in the data set with rats [7] (150mg/kg orally) and 37.33±0.05 with rats [7] (150mg/kg transdermally). Besides, the “body temperature t=90 min” value in the data set on rats [7] (100mg/kg orally) came to 36.40±0.15; in the data set on rats [7] (100mg/kg transdermally) it was 36.40±0.05; in the data set on rats [7] (150mg/kg orally) it was 36.30±0.15; with rats [7] (150mg/kg transdermally) it was 36.27±0.15. In addition, the “body temperature t=180 min.” value is listed as 36.50±0.09 in the data set on rats [7] (100mg/kg orally), 36.38±0.05 in the data set on rats [7] (100mg/kg transdermally), 36.28±0.07 in the data set on rats [7] (150mg/kg orally) and 36.26±0.07 in the data set on rats [7] (150mg/kg transdermally). For the same molecule, the “body temperature t=270 min.” value is 36.40±0.15 in the data set on rats [7] (100mg/kg orally), 36.40±0.15 in the data set with rats [7] (100mg/kg transdermally), 36.20±0.09 with rats [7] (150mg/kg orally) and 36.22±0.08 in the data set with rats [7] (150mg/kg transdermally). Moreover, the “antipyretic activity, transdermal versus oral administration” value with rats [7] (summary of Table 2) is “better than oral administration”. Further, the “% (rate of writhings inhibition)” value in the data set with mice [8] (setting [20]) is 56%; in the data set on mice [8] (setting [22]), 70%. Further, the “No. of Writhings” value with mice [8] (setting [20]) amounted to 14.5; in the data set on mice [8] (setting [21]), 15.4; with mice [8] (setting [22]) it was 10.1; with mice [8] (setting [23]) it was 11. In addition, the inhibition at 50 mg/kg with mice [8] (setting [24]) amounted to 54%. In addition, the inhibition at 100 mg/kg with mice [8] (setting [25]) worked out at 67%. Besides, the “analgetic activity compared with aspirin” value in the data set with mice [8] (writhing test, summary of Table 1) is reported as “better analgetic activity than aspirin”. Further, in data set [9] (isolated human skin, Franz cells, donor 20% suspension or 20% solution in pH 7.4 phosphate buffer (0.2M)), the Apparent flux values amounted to 100 mg/cm^2/h. For the same molecule, the “diffuses through human skin times faster than acetylsalicylic acid itself” value in [9] (ratio versus acetylsalicylic acid) was about 400 times. Also, in data set [9] (ratio versus ethyl acetylsalicylate), the “diffuses through human skin times faster than ethyl acetylsalicylate” value is on record as about 100 times. Besides, in data set [10], the “pro-drug changed back to the drug itself” value worked out at 80%. The LD50 in data set [11] turned out to be 2300 mg/kg. In data set [12] (blood), the half-life is about 4 min. Besides, the “analgetic activity (prolongation time of pain threshold)” value with mice [13] (200 mg/kg orally (C)) and in the data set with mice [13] (200 mg/kg transdermally (D)) was “stronger analgetic activity” in each case. Further, in the data set on rats [14], the average fecal blood result is listed as “none”. In addition, the figures for the solubility in data set [1] and in data set [15] were 300 mg/mL (≈ 1070 mM) and over 300 mg/mL, respectively.
Molecule `CCN(CC)CCCNC(=O)c1ccccc1OC(C)=O` [N-diethylaminopropyl acetylsalicylamide.AcOH] came in with a solubility in [1] of 280 mg/mL (≈ 958 mM).
Take `CC(=O)Oc1ccccc1C(=O)O` [acetylsalicylic acid, reference compound]: the average fecal blood in the data set on rats [16] was 5 mg of fecal blood per gram of feces. In the data set on rats [7] (100mg/kg orally), the “body temperature t=0 min” value came to 37.22±0.05, the “body temperature t=90 min” value was found to be 36.80±0.05, the “body temperature t=180 min.” value is reported as 36.85±0.05 and the “body temperature t=270 min.” value turned out to be 36.81±0.05. In the data set with rats [7] (150mg/kg orally), the “body temperature t=0 min” value is reported as 37.30±0.06, the “body temperature t=90 min” value amounted to 36.50±0.05, the “body temperature t=180 min.” value came out at 36.59±0.05 and the “body temperature t=270 min.” value is 36.55±0.05. Moreover, in the data set on mice [8] (setting [21]), the “No. of Writhings” value stood at 18.2. Besides, the “No. of Writhings” value in the data set with mice [8] (setting [23]) is listed as 13.2. In the data set with mice [8] (setting [24]), the inhibition at 50 mg/kg came out at 45%. For the same molecule, in the data set with mice [8] (setting [25]), the inhibition at 100 mg/kg was 60%. The Apparent flux values in data set [17] is 0.25 mg/cm^2/h. The molecule also gave a half-life in data set [12] of 15 min. In data set [18], the “half live in plasma” value is about 15 min. For the same molecule, the “time to peak levels of salicylic acid in plasma after application of the donor systems” value in data set [2] is about 20 min. For the same molecule, the solubility in the data set “physchem [19]” amounted to 0.01 mg/mL (≈ 0.0555 mM).
Consider `CCOC(=O)c1ccccc1OC(C)=O` [ethyl acetylsalicylate], for which, in [17], the Apparent flux values came out at 1 mg/cm^2/h; the “penetration rate difference between ethyl acetylsalicylate and acetylsalicylic acid” value was determined as 4 times.
`CC(=O)Oc1ccccc1C(=O)SCCN(C)C` [S-dimethylaminoethyl acetylthiosalicylate.AcOH]: the concentration in solution in [1] (solubility) was 320 mg/mL (≈ 1200 mM).
